Source: PubChem BioAssay (NCI)
“And” between values parts separate entries of the source, which are not always exact repeats. Equal values may be shown once.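 Results reflect a 48-hour exposure of cells in 96-well plates to compound at five concentrations. Here, GI50 denotes the concentration required for 50% inhibition of growth. TGI denotes the concentration required for complete inhibition of growth.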 Where a SMILES comes first, the peptide text is derived from it. [ ]: non-standard residue; d: D form. The star is where a group is joined. ξ: configuration not given here. dIva = CC[C@@](C)(N)C(=O)O; Aib = CC(C)(N)C(=O)O; ξP = O=C(O)C1CCCN1; βAla = NCCC(=O)O; X5 = OCN*

How the values were obtained:
Test in all cases: DTP human tumour cell line panel, 48 h
A498 renal = system: A498 renal
HOP-62 NSCLC = system: HOP-62 NSCLC
KM12 colon = system: KM12 colon
MALME-3M melanoma = system: MALME-3M melanoma
MOLT-4 leukemia = system: MOLT-4 leukemia
OVCAR-8 ovarian = system: OVCAR-8 ovarian
SR leukemia = system: SR leukemia
TK-10 renal = system: TK-10 renal
UO-31 renal = system: UO-31 renal
SNB-78 CNS = system: SNB-78 CNS

SMILES | GI50 (A498 renal) | TGI (A498 renal) | GI50 (HOP-62 NSCLC) [µM] | TGI (HOP-62 NSCLC) | GI50 (KM12 colon) [µM] | TGI (KM12 colon) | GI50 (MALME-3M melanoma) [µM] | TGI (MALME-3M melanoma) | GI50 (MOLT-4 leukemia) [µM] | TGI (MOLT-4 leukemia) [µM] | GI50 (OVCAR-8 ovarian) [µM] | TGI (OVCAR-8 ovarian) | GI50 (SR leukemia) [µM] | GI50 (TK-10 renal) [µM] | TGI (TK-10 renal) | GI50 (UO-31 renal) | TGI (UO-31 renal) | TGI (SR leukemia) [µM] | TGI (SNB-78 CNS) [µM]
NC(=S)N=Nc1c(O)[nH]c2ccccc12 | 30.1 µM and 206 µM | 94.9 µM and 503 µM | 167 | 360 µM | 217 | > 1000 µM | 310 | 753 µM | 243 | > 1000 | 234 | 846 µM | 98.2 | 165 | 326 µM | 39 µM and 126 µM | 504 µM | – | –
CCC(=O)OCN1C(=O)C=CC1=O | > 100 µM | > 100 µM | – | 37.6 µM and 34.9 µM | 19.3 | 35.1 µM and 30.8 µM | 16 | 31.5 µM and 27.6 µM | 3.32 | – | – | 35 µM and 37 µM | 3.27 | 15.6 | 29.3 µM and 18.4 µM | 17.5 µM | 31.7 µM and 20.7 µM | > 100 | –
CCc1cccc(CC)c1NC(=O)C1=CNC(C)=C(C(=O)Nc2c(CC)cccc2CC)C1c1ccc(O)c(OC)c1 (stereo not given) | – | 76.4 µM | – | 86.8 µM | – | 87.4 µM | – | > 100 µM | – | 82.9 | – | > 100 µM | – | – | > 100 µM | – | > 100 µM | – | > 100
COc1cc2c3c(n(CCCN4CCN(CCO)CC4)c(=O)c2cc1OC)-c1cc2c(cc1C3=O)OCO2 | 18.2 µM | 81.6 µM | 10.1 | 54 µM | 9.33 | 22.7 µM | 15.3 | 31 µM | 0.0899 | 6.24 | 7.62 | 28.3 µM | – | 15.5 | 37 µM | > 91.5 µM | > 100 µM | 1.34 | –
CCCC(CCC)C(=O)O | > 100 µM | > 100 µM and 4830 µM | > 20000 | > 20000 µM | > 100 | > 20000 µM | > 100 | > 20000 µM | > 100 | > 20000 | > 100 | > 20000 µM | > 100 | > 100 | > 20000 µM | > 100 µM | > 20000 µM | > 20000 | –
NC(N)=N/N=C/c1ccc(Br)cc1 | 3.57 µM | 13.7 µM | 9.8 | 24.2 µM | 3.42 | 15.5 µM | 10.1 | 22.7 µM | 3.98 | > 100 | 5.3 | 21.2 µM | 1.84 | 7.44 | 21.3 µM | 5.72 µM | 19.7 µM | 47 | –
COC(=O)CCc1c(/C=C2\N=C(c3ccc[nH]3)C=C2OC)[nH]c(C)c1C(=O)OCc1ccccc1 | 0.289 µM | 3.37 µM | 0.303 | 2 µM | 0.29 | 4.98 µM | 0.638 | 2.12 µM | 0.23 | 5.1 | 0.432 | 5.75 µM | 0.185 | 0.873 | 7.05 µM | 0.155 µM | 0.359 µM | 1.72 | –
CC[C@@](C)(NC(=O)[C@H](C)NC(=O)CCNC(=O)C(C)(C)NC(=O)[C@H](C)NC(=O)[C@@H]1CCCN1C(=O)[C@@](C)(CC)NC(=O)[C@H](Cc1ccccc1)NC(=O)C1CCCN1C(=O)C(C)(C)NC(=O)C1CCCN1C(=O)C(C)(C)NC(C)=O)C(=O)NCCC(=O)N[C@@H](CC(C)C)C(=O)NC(C)(C)C(=O)NCCC(=O)N[C@@H](CC(C)C)C(=O)NC(C)(C)C(=O)NC(C)(C)C(=O)N[C@@H](CC(C)C)C(=O)NCCC(=O)NCO (stereo not given in full) (Ac-[Aib][ξP][Aib][ξP]F[dIva]PA[Aib][βAla]A[dIva][βAla]L[Aib][βAla]L[Aib][Aib]L[βAla]-X5) | 0.19 µM | 0.412 µM | 0.18 | 0.383 µM | 0.168 | 0.368 µM | 0.0595 | 0.256 µM | 0.306 | 0.645 | 0.119 | 0.359 µM | 0.272 | 0.153 | 0.353 µM | 0.179 µM | 0.391 µM | 0.646 | –
NS(=O)(=O)c1ccc(N=Nc2c(=O)[nH]c3ccc4[nH]cccc4c23)cc1 | 0.671 µM | 1.45 µM | 0.653 | > 25 µM | 0.792 | 4.32 µM | 1.05 | 3.05 µM | 0.632 | 3.31 | 0.342 | > 25 µM | 0.147 | 0.699 | 2.24 µM | 1.68 µM | > 25 µM | 0.652 | –
Nc1ncnc2c1ncn2C1OC(C(=O)OCCO)C(O)C1O (stereo not given) | – | > 100 µM | – | > 100 µM | – | > 100 µM | – | > 100 µM | – | > 100 | – | > 100 µM | – | – | > 100 µM | – | > 100 µM | > 100 | –
CC(=O)Nc1ccccc1S(=O)c1ccccc1 (stereo not given) | – | > 100 µM | – | > 100 µM | – | > 100 µM | – | > 100 µM | – | > 100 | – | > 100 µM | – | – | > 100 µM | – | > 100 µM | – | > 100
O=C1C=C(OCC=C(Cl)Cl)C(=O)c2ccccc21 | > 86.2 µM | > 100 µM | 54.9 | > 100 µM | 8.41 | > 90.7 µM | 2.18 | 6.11 µM | 2.34 | > 24 | 3.29 | 15.8 µM | – | 61.2 | > 100 µM | 3.15 µM | 15.9 µM | > 20.4 | –
Cc1ccc(SSCCCCS(=O)O)cc1 | – | 54.6 µM | – | 81.1 µM | – | 52.3 µM | – | 69.7 µM | – | > 100 | – | – | – | – | 46.8 µM | – | 39.8 µM | – | > 100
CC1CC2(C)CC(=O)C1C1C(=O)N(CCN3CCOCC3)C(=O)C12 (stereo not given) | > 100 µM | > 100 µM | > 100 | > 100 µM | > 100 | > 100 µM | > 100 | > 100 µM | > 100 | > 100 | > 100 | > 100 µM | > 100 | > 100 | > 100 µM | > 100 µM | > 100 µM | > 100 | –
CCN(CC)c1ccc(N=C2C=CC(=C(C#N)C#N)c3ccccc32)c(C)c1 | – | – | – | 6.25 µM | – | – | – | 4.51 µM | – | 9.63 | – | 7.28 µM | – | – | 9.58 µM | – | 6.95 µM | – | 6.42
ClCCCN1CCCCC1CCl (stereo not given) | – | > 100 µM | – | > 100 µM | – | > 100 µM | – | > 100 µM | – | > 100 | – | > 100 µM | – | – | > 100 µM | – | > 100 µM | > 100 | –
